Experiment [1] relates to human neural stem cells (hNSCs). The experiment is described as follows: Neuronal differentiation of human neural stem cells (TUJ-1 staining). Type of experiment: cell-based. From the text:
FIG. 1 is a dose-response curve showing the effect of MCC-257 on neuronal differentiation of human neural stem cells. Data is presented as the percentage of the neuronal positive control, with basal media values subtracted.
Human neural stem cells (hNSCs) were isolated and grown in monolayer culture, plated, treated with varying concentrations of MCC-257, and stained with TUJ-1 antibody for the detection of neuronal differentiation as described in U.S. Patent Publication 2007/0015138 (incorporated by reference). Mitogen-free test media with a positive control for neuronal differentiation was used along with basal media without growth factors as a negative control.
The data is presented as a percent of neuronal positive control.

The test system of experiment [2] is neural progenitor cells within the dentate gyrus of the hippocampus. The experiment is described as follows: In vivo neurogenesis, BrdU positive cell counts in the dentate gyrus. On the set-up: species or system rat. The note with it: 0.3 mg/kg orally q.d., chronic (26 or 28 days as printed); vs vehicle; FIG. 3. On the procedure: The white bar represents vehicle (DI water, n=11) and the grey bar represents MCC-257 dosed at 0.3 mg/kg (n=10). Both vehicle and MCC-257 were dosed orally once daily (q.d.) for 26 days prior to analysis. […] Data are presented as the number of BrdU cells per cubic mm of dentate gyrus. […] Values are the mean±SEM.
For the in vivo neurogenesis assays, male F344 rats were dosed orally once daily (q.d.) for 28-days with vehicle (DI water; n=11) or 0.3 mg/kg MCC-257 ([…]). BrdU was administered once daily between days 9 and 14 (100 mg/kg/day, i.p.).

The subject of experiment [3] is male F344 rats. The experiment is described as follows: Novelty-suppressed feeding test (NSF), chronic dosing. Format: in vivo, rat. The settings on record: vs vehicle, p<0.05 one-tailed Student's t-test, FIG. 2. On the procedure:
The white bar represents the vehicle control (DI water; n=10), the black bar represents fluoxetine dosed at 12.5 mg/kg (n=11) and the grey bar represents MCC-257 dosed at 0.3 mg/kg (n=11). Vehicle and compounds were administered orally once daily (q.d.) for 20 days prior to behavioral testing. Behavioral testing was carried out as described in Example 2. […] Values are the mean±SEM.
The NSF is a conflict test in which food-deprived animals are presented with a food pellet placed in the center of a brightly-lit open field. This paradigm elicits competing motivations: the drive to eat the food pellet, and the fear of venturing into the center of the arena. The dependent variable in this test is the amount of time it takes for an animal to begin eating the pellet, and this latency has been used as an index of anxiety-like behavior and antidepressant activity because it is decreased by classical anxiolytic drugs such as benzodiazepines (Bodnoff et al. “The effects of chronic antidepressant treatment in an animal model of anxiety.” 1988 Psychopharmacology (Berl) 95(3):298-302; Bodnoff et al. “A comparison of the effects of diazepam versus several typical and atypical anti-depressant drugs in an animal model of anxiety.” 1989 Psychopharmacology (Berl) 97(2):277-9; Shephard and Broadhurst, “Hyponeophagia and arousal in rats: effects of diazepam, 5-methoxy-N,N-dimethyltryptamine, d-amphetamine and food deprivation.” 1982 Psychopharmacology (Berl) 78(4):[…]) as well as antidepressants.
NSF is performed as described previously by Santarelli, et al. (2003) with some modifications. Briefly, male F344 rats were dosed orally once daily (q.d.) for 20-days with vehicle (DI water; n=10), 12.5 mg/kg fluoxetine (n=11) or 0.3 mg/kg MCC-257 (n=11). Animals were food deprived for 24 hours prior to testing. On day 22, 60 minutes after drug administration, NSF was performed in an open field chamber. A single pellet of rodent chow was placed in the center of the open field. […] Saved videos were subsequently scored by blinded observers and the latency to eat the pellet was recorded.

In experiment [4] the test system is male F344 rats. The experiment in a line: Novel Object Recognition (NOR) cognition assay. Type of experiment: in vivo, rat. The settings on record: 48-hour delay; increasing oral doses q.d., chronic; vs vehicle; FIG. 4. On the procedure: Behavioral testing was carried out as described in Example 2. Data is presented as the mean percentage of visits to a novel object. The white bar represents vehicle (DI water: n=11) and grey bars represent increasing doses of MCC-257 (0.1 mg/kg, n=10; 0.3 mg/kg, n=10; 3.0 mg/kg, n=10). All animals were dosed orally once daily (q.d.) for 29 days prior to testing. […] Values are the mean±SEM.
NOR was performed as described previously by Broadbent et al., (“Spatial memory, recognition memory, and the hippocampus.” 2004 PNAS 101(40):14511-14520) with some modifications. The apparatus consisted of an open field (45×45×50 cm high) made of polycarbonate. Triplicate copies were used of the objects to be discriminated. Care was taken to ensure that the pair of objects tested were made from the same material so that they could not be distinguished readily by olfactory cues although they had very different appearances. Each test session consisted of two phases. In the initial familiarization phase, two identical objects (A1 and A2) were placed in the far corners of the box arena. A rat was then placed in the middle of the arena and allowed 15 minutes to explore both objects. Exploration of an object was defined as directing the nose to the object at a distance of less than 2 cm and/or touching it with the nose. After a delay of 48-hours the rat was re-introduced to the arena (“test phase”). […]

Structures are written as SMILES. “Also recorded” adds a separate entry of the source.

Usually EC50 stands for the concentration that produces a half-maximal response. Consider `CO[C@]1(C(=O)N[C@@H]2CC[C@@]3(C)[C@@H](CC[C@@H]4[C@@H]3CC[C@]3(C)[C@@H]([C@H](C)CCCC(C)C)CC[C@@H]43)C2)C[C@H](O)[C@@H](NC(C)=O)[C@H]([C@H](O)[C@H](O)CO)O1` [MCC-257, 5-acetamido-N-(5alpha-cholestan-3alpha-yl)-3,5-dideoxy-2-O-methyl-D-glycero-alpha-D-galacto-non-2-ulopyranosonamide], for which, in experiment [1] (Homo sapiens, Neural stem cell, read-out: EC50 of neuronal differentiation), the concentration giving a half-maximal response (EC50) was found to be 90 nM. Moreover, the “effect on neuronal differentiation” value in experiment [1] (concentration response curve, percent of neuronal positive control, FIG. 1) is given as “promoted neuronal differentiation in a concentration dependent manner”. In experiment [2], the “BrdU positive cells per cubic mm in granule cell layer of dentate gyrus (neurogenesis)” value is “significant increase; also recorded: significantly increased neurogenesis”. Also, the “latency to eat a food pellet in a novel environment” value in experiment [3] (0.3 mg/kg orally q.d. for 20 days) is given as “significantly reduced latency to eat”. The “preference for the novel object (percent visits)” value in experiment [4] is listed as “dose dependent increase in preference for the novel object; also recorded: dose-related increase in preference for the novel object”.

Regarding `CNCCC(Oc1ccc(C(F)(F)F)cc1)c1ccccc1` (stereo not shown) [fluoxetine, reference compound], the “latency to eat a food pellet in a novel environment” value in experiment [3] (12.5 mg/kg orally q.d. for 20 days) is given as “significantly reduced”; in experiment [3] (12.5 mg/kg orally q.d. for 20 days, listed as Fluoxetine), “significantly reduced latency to eat”.

These data come from patent US20090239834A1, “MCC-257 MODULATION OF NEUROGENESIS” (BrainCells, Inc., priority 2008, published 2009).
